Results published in patent US5081253A, “Imidazo(4,5-C)pyridines as antiosteoporotic agents” (American Home Products Corporation, priority 1990, dated 1992).

What was measured:
[1] = system: Rat Limb Bones (basal bone resorption); assay: Basal Bone Resorption Assay: 45Ca Release from Rat Limb Bones; format: cell-based; conditions: 10 μg/mL
Text: The purpose of this assay is to test stimulators and inhibitors of bone resorption in vitro. The release of ^45 Ca from in vitro labeled murine bone explants into the culture media is taken as an index of bone resorption.
Rat pups are labelled […] by injecting pregnant dams (18 days) with 100 μCi of ^45 Ca.
Two days after the initiation of labelling, the dam is anesthetized with halothane and killed by cervical dislocation. The pups are ablated and quickly decapitated. The calvaria (frontal and parietal bones), forelimbs (containing radii and ulnae), and hind limbs (tibiae) are removed and placed in control media in a petri dish. Bones are debrided of soft tissue by a combination of blunt dissection, and gentle rolling on bibulous paper, taking care not to disturb the periosteum. Cartilaginous ends are cut off long bones. Calvaria are cut in half along midline suture. Bones are separated into 3 categories: calvaria halves, Tibiae and ulnae/radii. Groups of eight (per bone group) are randomly placed in 24-well culture plates containing 0.5 mL of control media. Cultures are maintained at 37° C. in a humidified incubator of 95% air: 5% CO2.
These bones are incubated for 24 hours, media is aspirated from the bones and replaced with fresh media containing test substances. Each bone group has a control group of 8 and a dead bone group of 8. The devitalized cultures are obtained by heating the bones in medium at 55° C. for 60 minutes. The bones are incubated at 37° C. for an additional 72 hours. At the end of this period a 100 microliter aliquot of media is removed and placed in a scintillation vial. Ten mL of Aquasol is added, the ^45 Ca is quantified in a scintillation spectrometer. Bones are rinsed in saline, placed in a scintillation vial, hydrolyzed overnight in 0.75 mL 6N HCl at room temperature. The hydrolyzed bone solution is neutralized by the addition of 2.25 mL of 2N NaOH, followed by 10 mL of Aquasol, the ^45 Ca content is determined by scintillation spectrometry.
Analysis: ^45 Ca release into culture medium from the 24-96 hour period is individually compared to ^45 Ca release in control cultures and to devitalized bone via Dunnett's test. […]

[2] = system: osteopenia induced by denervation of the sciatic nerve in rats; assay: Denervation Induced Osteopenia in Rats; format: in vivo, rat (female Sprague Dawley CD)
Text: The purpose of this assay is to evaluate the effect, in rats, of agents on the reduction in bone mass (osteopenia) induced by immobilization resulting from surgical severance (denervation) of the sciatic nerve.
The animals are housed in plastic cages (4 or 5 rats/cage) with food (rat purina 500 chow) and water ad libitum; 14/10 day/night cycle.
After one week of in-house acclimatization, the animals are randomly divided into groups of 6 to 10 rats/group. Each rat is weighed, anesthetized with an intraperitoneal administration of 100 mg/kg ketamine (Bristol Laboratories, Syracuse, N.Y.) and 0.75 mg/kg Acepromazine (Aveco, Ft. Dodge, Iowa). The left hind limb is shaved and denervated by making a lateral incision parallel to the femur and by surgically removing half of a centimeter of the sciatic nerve adjacent to caudofemoralis and adductor brevis muscles. The incision is closed with wound clips. After surgery, the rats are housed in cages with absorbent bedding to minimize additional trauma to the immobilized limb. A 24 hour post-surgery recovery period is allowed before the initiation of the drug treatment.
The concentration of the drug stock is calculated to be delivered in a volume of 0.1 mL/100 gram body weight. The drug solution or a uniform suspension is prepared in 1% Tween 80 in normal saline. The drugs are administered via oral or parenteral routes daily (five times a week) for four weeks.
A sequential triple labeling of mineralized tissue is employed to determine the osseous changes (especially the bone formation) and the mineralization rates. Each animal is administered 90 mg/kg Xylenol orange (Fisher Scientific Company), S.C., 15 mg/kg Calcein (Sigma Chemical Company), S.C. and 15 mg/kg Demeclocycline (Sigma Chemical Company), i.p., approximately 21 days, 10 days and 2 days prior to the termination of the study, respectively.
At the end of the fourth week, each rat is weighed, anesthetized with an intraperitoneal administration of 100 mg/kg ketamine with 0.75 mg/kg Acepromazine and approximately 4 mL of blood collected via cardiac puncture. The anesthetized rats are euthanized by exposure to carbon dioxide. The femora and tibiae from both limbs are dissected free of soft tissue. (i) Femora are ashed at ~1100° C. for 16 hours using a muffle furnace. --(ii) Proximal tibia are fixed, dehydrated and embedded undecalcified in a methyl methacrylate-glycol methacrylate mixture. Longitudinal tissue sections (10 microns) are prepared on a Polycut S microtome (Reichert). Staining is performed on free-floating sections using a modified Goldner's stain, which are then mounted and coverslipped.
Cancellous bone content in the proximal tibia is quantified (as two dimensional bone mineral area [B.Ar]) with an image analysis processing device (software developed by Drexel University).
The areas of the tibia selected for cancellous bone content evaluation are the primary and secondary spongiosa. To select and standardize this area for evaluation, the epiphyseal growth plate-metaphyseal junction is oriented parallel to the abscissa of the digitizing screen. Bone elements 1.7 mm (secondary spongiosa) and 0.2 mm (primary spongiosa) from the growth plate and equidistant from the flanking cortical elements are then quantified as described above. The total area evaluated is 2.30 mm wide and 1.45 mm deep, constituting a 3.34 mm^2 area.
Body weight, femur mass (dried or ashed) and trabecular (cancellous) bone mineral area (B.Ar) are determined.
The difference (both absolute and percent change) in femur mass and bone mineral area between intact (control) and denervated limbs of a treatment group are compared with that for the vehicle group using a one-way analysis of variance with Dunnett's test, or other multiple comparison methods.
The results are reported in Table I and II under the heading In Vivo.

[3] = system: Rat Limb Bones (PTH induced bone resorption); assay: Bone Resorption Assay: 45Ca Release from Rat Limb Bones (PTH Induced); format: cell-based, rat (Sprague-Dawley CD)
Experimental: The purpose of this assay is to identify compounds that inhibit basal or stimulated bone resorption in culture.
The ability of 2-substituted-imidazo[4,5-c]pyridines to modify the process of bone resorption was evaluated essentially as described by L.G. Raisz, Bone resorption in tissue culture. Factors influencing the response to parathyroid hormone.
Timed pregnant Sprague-Dawley CD® rats (Charles River) are administered 100 μCi ^45 CaCl2 (NEN calcium -45 NEZ-013) in 100 μL of 0.9% saline, subcutaneously, on day 18 of gestation. The rats are sacrificed the following day by CO2 asphyxiation. The fetuses are removed and the right forelimbs excised and placed in a Petri dish containing ice cold explant medium consisting of modified BGJb -Fitton Jackson media (custom formulation, Gibco No. 78-0088) adjusted to pH 7.3 to which 10 mM TES is added. […] Under a dissecting microscope, the bones are gently cleaned of adherent tissue and the cartilaginous ends removed. Incubation and drug treatment. […] The preincubation medium is brought to 37° C. prior to transfer of bones. The preincubation medium consists of the modified BGJb medium (with salts and glucose as above), pH 7.3, containing 29 mM NaHCO3. […] For compounds that require nonaqueous solvents, dilutions are made from the appropriate stock solution with medium. In these instances, basal and bone resorption stimulated controls exposed to an equivalent concentration of the vehicle are included. […] The right ulna and radius from each fetus are used. Both bones are subjected to the same treatment and each treatment group consists of bones from 4 or more fetuses. Treatments are randomly assigned using a preclinical statistics program (PS-ALLOC). After a 48 hour incubation at 37° C. in 5% CO2, the bones are removed from the medium and extracted in 0.5 mL of 0.1N HCl for 1 or more days. Duplicate 150 μL aliquots of the incubation medium and the bone extract are analyzed for ^45 Ca radioactivity in 5 mL of liquid scintillation cocktail.
The percentage of bone ^45 Ca released into the medium is determined as follows: [formula] […]

Row | SMILES | Inhibition of Bone Resorption, Basal ([1]; Table I) | Inhibition of Bone Resorption, In Vivo ([2]; po, 672 h) | Inhibition of Bone Resorption, PTH Induced ([3]; Table I, 10 μg/mL) | other results
1 | [O-][S+](Cc1ccc(Br)cc1F)c1nc2cnccc2[nH]1 (stereo not shown) [Example 21, 2-[[(4-Bromo-2-fluorophenyl)methyl]sulfinyl]-1H-imidazo[4,5-c]pyridine] | Active | Inactive | Active | –
2 | [O-][S+](Cc1cccc(OCc2ccccc2)c1)c1nc2cnccc2[nH]1 (stereo not shown) [Example 23] | Active | Inactive | Active | –
3 | [O-][S+](Cc1cc2c(cc1Cl)OCO2)c1nc2cnccc2[nH]1 (stereo not shown) [Example 25] | Active | Inactive | Active | –
4 | COc1ccc(CSc2nc3cnccc3[nH]2)cc1 [Example 26, 2-[[(4-Methoxyphenyl)methyl]thio]-1H-imidazo[4,5-c]pyridine] | – | – | – | Inhibition of Bone Resorption, Basal ([1]; Table II): Inactive; Inhibition of Bone Resorption, In Vivo ([2]; Table II, 25 mg/kg, p.o.): Inactive; Inhibition of Bone Resorption, PTH Induced ([3]; Table II, 10 μg/mL): Active
5 | [O-][S+](Cc1ccc(F)c(F)c1)c1nc2cnccc2[nH]1 (stereo not shown) [Example 31, 2-[[(3,4-Difluorophenyl)methyl]sulfinyl]-1H-imidazo[4,5-c]-pyridine-One Tenth Hydrate] | Active | Inactive | Active | –
6 | COc1cccc(CS(=O)(=O)c2nc3cnccc3[nH]2)c1 [Example 4] | Marginal | Inactive | Active | –
7 | COc1cccc(C[S+]([O-])c2nc3cnccc3[nH]2)c1 (stereo not shown) [Example 3, 2-[[(3-Methoxyphenyl)methyl]sulfinyl]-1H-imidazo[4,5-c]pyridine] | Active | Active | – | IC50 ([3]; Rattus norvegicus, Table I, read-out: Inhibition of Bone Resorption, PTH Induced IC50): 49 µM; Inhibition of Bone Resorption, PTH Induced ([3]; Table I, concentration not given): Active
8 | Cc1cc(C)c(C[S+]([O-])c2nc3cnccc3[nH]2)c(C)c1 (stereo not shown) [Example 19, 2-[[(2,4,6-Trimethylphenyl)methyl]sulfinyl]-1H-imidazo[4,5-c]pyridine] | Active | Inactive | Active | –
9 | COc1cccc(CSc2nc3cnccc3[nH]2)c1 [Example 2, 2-[[(3-Methoxyphenyl)methyl]thio]-1H-imidazo[4,5-c]pyridine] | – | – | – | Inhibition of Bone Resorption, Basal ([1]; Table II): Inactive; Inhibition of Bone Resorption, In Vivo ([2]; Table II, 25 mg/kg, i.p.): Active; Inhibition of Bone Resorption, PTH Induced ([3]; Table II, 10 μg/mL): Inactive
10 | Fc1c(F)c(F)c(CSc2nc3cnccc3[nH]2)c(F)c1F [Example 32, 2-[[(Pentafluorophenyl)methyl]thio]-1H-imidazo[4,5-c]pyridine] | – | – | – | Inhibition of Bone Resorption, Basal ([1]; Table II): Inactive; Inhibition of Bone Resorption, In Vivo ([2]; Table II, 25 mg/kg, p.o.): Inactive; Inhibition of Bone Resorption, PTH Induced ([3]; Table II, 10 μg/mL): Inactive
11 | [O-][S+](Cc1ccccc1)c1nc2cnccc2[nH]1 (stereo not shown) [Example 12, 2-[[(Phenyl)methyl]sulfinyl]-1H-imidazo-[4,5-c]pyridine] | Active | Inactive | Active | –
12 | [O-][S+](Cc1c(F)cccc1Cl)c1nc2cnccc2[nH]1 (stereo not shown) [Example 10, 2-[[(2-Chloro-6-fluorophenyl)methyl]-sulfinyl]-1H-imidazo[4,5-c]pyridine] | Active | Inactive | Active | –
13 | Fc1ccc(CSc2nc3cnccc3[nH]2)cc1F [Example 30, 2-[[(3,4-Difluorophenyl)methyl]thio]-1H-imidazo[4,5-c]pyridine] | – | – | – | Inhibition of Bone Resorption, Basal ([1]; Table II): Inactive; Inhibition of Bone Resorption, In Vivo ([2]; Table II, 25 mg/kg, p.o.): Inactive; Inhibition of Bone Resorption, PTH Induced ([3]; Table II, 10 μg/mL): Inactive
14 | COc1cccc(CC[S+]([O-])c2nc3cnccc3[nH]2)c1 (stereo not shown) [Example 17, 2-[[(3 -Methoxyphenyl)ethyl]sulfinyl]-1H-imidazo[4,5-c]pyridine] | Inactive | – | Active | Inhibition of Bone Resorption, In Vivo ([2]; Table I, no dose given, oral or parenteral daily (five times a week) for four weeks): Borderline
